According to patent US9073880B2, “2-(2-phenylethenyl) 1,3-benzodiazepine derivatives useful for the treatment of cancer” (Yissum Research Development Company of the Hebrew …, priority 2010, dated 2015):

How the values were obtained:
[1] = test system: human melanoma A375 cells; experiment: Cell death (PARP cleavage) in A375 cells; type: cell-based
Experimental: (§1) The effect of compound 5 on IRS1 & IRS2 levels and its effect on IGF1-induced Akt/PKB activation and apoptosis in melanoma A375 cells were tested. Cells were seeded in 6-well plates (150,000 A375 cells/well) and 24 hours later medium was replaced by serum-free medium (RPMI supplemented with 100 units/ml penicillin and 100 μg/ml streptomycin), […], and then stimulated for 5 minutes with 50 ng/ml IGF-1, washed twice with PBS and lysed by boiling sample buffer (10% glycerol, 50 mM Tris-HCl, pH 6.8, 3% SDS, and 5% β-mercaptoethanol). Equal amounts of protein per lane were separated by 8% SDS-PAGE and transferred to a nitrocellulose membrane (Sartorius AG). To detect the inhibition of the Akt/PKB activation, phosphorylated proteins were immunoblotted with anti-phospho(T308)Akt (pT308-PKB) and anti-phospho-Tuberin/TSC2 (pTuberin) antibodies. To visualize cell death induced by compound 5, the intact and the cleaved PARP were immunoblotted with anti-PARP antibody. The changes in the levels of IRS1 and IRS2 were detected with specific antibodies. Detection was performed with horseradish peroxidase-conjugated secondary antibody using the ECL system. Blots were then stripped of antibodies, blocked with TBST with 5% low fat milk and re-probed with antibodies detecting both the phosphorylated and the non-phosphorylated Akt/PKB. […]

[2] = test system: IRS1 & IRS2; experiment: IRS1 and IRS2 levels in A375 cells (Example 5); type: cell-based, human
Experimental: as §1

[3] = test system: Human ovary cancer A2780 cells; experiment: Cell proliferation, A2780 (Example 2); type: cell-based; details: 72 hours, 0.1% DMSO, methylene blue
Experimental: (§2) Human ovary cancer A2780 cells lines were seeded at a density of 5000 cells/well, human melanoma A375 cells were plated at a density of 2,500 cells/well, human colon carcinoma HCT15 cells were plated at a density of 3,000 cells/well, human prostate carcinoma PC3 cells were plated at a density of 1,500 cells/well, human breast carcinoma MCF7 cells were plated at a density of 5,000 cells/well, human breast carcinoma MDA MB 468 cells were plated at a density of 6,000 cells/well, human myeloma U266, RPMI8226 and CAG cells were plated at a density of 10,000 cells/well. All cells were plated in 96-well plates in 90 μl growth medium containing 10% FCS, 100 units/ml penicillin and 100 μg/ml streptomycin. Compound 3 was added a day later in […] of 1% DMSO in DDW to obtain final concentrations of 0, 0.1, 0.3, 1, 3, and 10 μM. The final concentration of DMSO (0.1% DMSO) was kept constant in all samples. […] The optical density values were read at 630 nm in ELISA plate reader. Non-adhered cells were exposed to WST-1 reagent for 5 hours following 72 hours treatment with the inhibitors, and optical density values were read at 630 nm in ELISA plate reader. The data was analyzed in Microsoft Excel, using the vehicle control as 100% proliferation. […]

[4] = test system: human myeloma U266 cells; experiment: Cell proliferation, U266 (Example 2); type: cell-based; details: U-266, U266, multiple myeloma, 72 hours, 0.1% DMSO, WST-1
Experimental: as §2

[5] = test system: human colon carcinoma HCT15 cells; experiment: Cell proliferation, HCT15 (Example 2); type: cell-based; details: HCT-15, 72 hours, 0.1% DMSO, methylene blue
Experimental: as §2

[6] = test system: IRS1; experiment: IRS1 levels and serine phosphorylation in MCF7 cells (western blot, time course); type: cell-based, human; details: 10 μM
Experimental: Tyrosine autophosphorylation of the β-subunit of IGF-1R as well as downstream signaling induced by IGF-1R were assayed in human breast cancer MCF7 cells and in melanoma A375 cells. Cells were seeded in 6-well plates (250,000 A375 cells/well and 300,000 MCF7 cells/well) and 24 hours later medium was replaced by serum-free medium (RPMI supplemented with 100 units/ml penicillin and 100 μg/ml streptomycin). MCF7 cells were exposed for 48 hr to compound 3 at 10 μM concentration, and then stimulated for 5 minutes with 50 ng/ml IGF-1, washed twice with PBS and lysed by boiling sample buffer (10% glycerol, 50 mM Tris-HCl, pH 6.8, 3% SDS, and 5% (3-mercaptoethanol). Equal amounts of protein per lane were separated by 8% SDS-PAGE and transferred to a nitrocellulose membrane (Sartorius AG). Phosphorylated proteins were immunoblotted with anti-phosphoIGF-1R (pIGF-1R), anti-phosphotyrosine-IRS1 (pY-IRS I) and anti-phospho(T308)Akt (pPKB) antibodies. Detection was performed with horseradish peroxidase-conjugated secondary antibody using the ECL system. Blots were then stripped of antibodies, blocked with TBST with 5% low fat milk and re-probed with antibodies detecting both the phosphorylated and the non-phosphorylated corresponding proteins e.g. IGF-1Rβ, IRS1 and PKB. […]

Row | SMILES | cell death (PARP cleavage) ([1]; 3 μM, 48 hr, FIG. 6A, 6B) | cell death (PARP cleavage) after washout ([1]; 5 μM for 4 hr, 24 hr following washout, FIG. 6C) | IRS1 and IRS2 levels ([2]; 3 μM, 48 hr, FIG. 6B) | levels of IRS1 & IRS2 after washout ([2]; 5 μM for 4 hr, washed, 24 hr after washout, FIG. 6C) | IC50 [3] | IC50 [4] | IC50 [5] | levels of IRS1 ([6]; 48 hr, FIG. 3) | time course of effect on IRS1 phosphorylation and levels ([6]; various time periods, FIG. 5)
1 | O=c1c(O)cc2cnc(/C=C/c3ccc(O)c(O)c3Br)sc-2c1O [Compound 5] | induced cell death (PARP cleavage) | enough to trigger a process which leads to cell death | induced a decrease in IRS1 and IRS2 levels | remained low | – | – | – | – | –
2 | O=c1c(O)cc2cnc(/C=C/c3cc(O)c(O)c(Br)c3)sc-2c1O [Compound 3] | – | – | – | – | 300 nM | 700 nM | 1000 nM | significant decrease | elimination of IRS1 induced by compound 3 is subsequent to IRS1 serine phosphorylation
